Reference: patent US11446287B2, “Compounds and methods for EP300 or CBP modulation and indications therefor” (Opna Immuno-Oncology SA, priority 2019, dated 2022)

Molecular target: T1, Recombinant human BRD4 containing dual bromodomains (BRD4-BD12 (1-477)) (Homo sapiens, UniProt O60885)
T1 construct: Recombinant human BRD4 containing dual bromodomains (BRD4-BD12 (1-477)); made in house; host or cells: E. coli BL21-CodonPlus (DE3), modified pET vector
Assay: BRD4 Alphascreen binding assay
Experimental: BRD4 Alphascreen Binding Assay
Binding of compounds of Formula (I) with BRD4 was assessed using Alphascreen binding assay. The inhibition of the interaction between BRD4 and its acetylated target protein was measured quantitatively using recombinant BRD4 protein, an acetylated Histone 4 peptide, and AlphaScreen™ technology. In absence of inhibition of the BRD4 protein bound to AlphaScreen™ nickel chelate acceptor beads can interact with the acetylated Histone 4 peptide which was immobilized by the AlphaScreen™ Streptavidin coated beads. This interaction brings donor and acceptor beads in proximity. The close proximity allows the singlet oxygen produced by laser excitation of the donor beads to reach the acceptor beads and generate a luminescence signal. BRD4 inhibitors result in a decrease in the proximity signal through an inhibition of the BRD4—acetylated peptide interaction.
Recombinant human BRD4 containing dual bromodomains (BRD4-BD12 (1-477)) was prepared and purified as described in protein expression and purification session. The peptide was human Histone H41-21K5AcK8AcK12AcK16Ac-Biotin (Anaspec CA, USA).
Protocol for BRD4 assay: All components are prepared in buffer composed of 50 mM HEPES pH 7.5, 50 mM NaCl, 0.01% BSA, 0.01% Triton X-100, 2 mM DTT. Test compounds and DMSO vehicle are diluted 1:50 in buffer and a 4 μL volume was transferred to an Alphaplate. 5.5 μL of Bromodomain protein and 5.5 μL of peptide are added to wells containing 4 μL of various concentrations of test compounds of Formula (I) or DMSO vehicle in an Alphaplate (PerkinElmer GA, USA) and incubated for 1 hour at room temperature. 5 μL donor and acceptor bead mixture was then added with final concentrations of 7.5 μg/ml. 30 minutes after bead addition, Alpha signal was read on the Envision spectrometer (λEx 680 nm, λEm 520-620 nm). Final concentrations of bromodomain proteins and peptide are as shown below.
All data were normalized to the mean of 16 high and 16 low control wells on each plate. A four parameter curve fit of the following formula was then applied: Y=A+((B−A)/(1+((C/x)^D))) Where ‘A’ is the minimum, ‘B’ is the maximum, ‘C’ is the IC50 and ‘D’ is the Hill slope. Protein Expression and Purification
Recombinant human BRD4 containing dual bromodomains (BRD4-BD12 (1-477)) was expressed in E. coli cells (in a modified pET vector) with an N-terminal six-His tag and purified using a combination of both IMAC (Ni-affinity) and size exclusion chromatography steps.
Recombinant BRD4 was expressed using the E. coli strain BL21-CodonPlus (DE3) (Agilent Technologies CA, USA). Cells were grown in Terrific Broth (TB) media to an OD600 of 2.0 at 37° C. at which temperature was reduced to 18° C., protein was induced with 0.1 mM isopropyl-β-D-thiogalactopyranoside (“IPTG”) for 12-18 hours and harvested by centrifugation at 8000×g for 20 minutes. Cells were re-suspended in 40 mM Tris-HCl pH 8.0, 0.5 M NaCl, 25 mM Imidazole, 5% glycerol, 1/200 vol. Protease Inhibitor Cocktail Set III (Calbiochem), 5 mM beta-mercaptoethanol (“BME”), 0.5 mg/mL Lysozyme, and 0.5 mg/mL DNaseI, incubated on ice for 30 minutes and lysed with a cell disruptor (MicroFluidics MA, USA). The lysate was clarified by centrifugation at 20,000×g for 2 hours. The protein was captured with Ni-NTA resin (Life Technologies, USA). Contaminating proteins were washed off with 40 mM Tris-HCl pH 8.0, 0.5 M NaCl, 25 mM Imidazole, 5% glycerol, and 5 mM BME. Following 3× wash steps, protein was eluted step wise into wash buffer containing 50, 100, 150, 500 mM Imidazole. The protein was further purified using Gel Filtration column 16/60 Superdex 200 (GE Biosciences NJ, USA) in 10 mM HEPES pH 8.0, 150 mM NaCl, and 5 mM DTT. Glycerol was added to a final concentration of 12% and the protein was aliquoted and flash-frozen in liquid Nitrogen.

First: Cc1noc(C)c1-c1cnc2c(c1)c(-c1ccc(C(=O)O)cc1OCC(F)(F)F)cn2[C@@H](C)c1ccccn1 [P-0115, (S)-4-(5-(3,5-dimethylisoxazol-4-yl)-1-(1-(pyridin-2-yl)ethyl)-1H-pyrrolo[2,3-b]pyridin-3-yl)-3-(2,2,2-trifluoroethoxy)benzoic acid]
Second: Cc1noc(C)c1-c1cnc2c(c1)c(-c1ccc(C(=O)O)cc1C(F)(F)F)cn2[C@@H](C)c1ccccn1 [P-0116, (S)-4-(5-(3,5-dimethylisoxazol-4-yl)-1-(1-(pyridin-2-yl)ethyl)-1H-pyrrolo[2,3-b]pyridin-3-yl)-3-(trifluoromethyl)benzoic acid]
The IC50 of the first is higher: 8 to 1000 µM for the first, 1 to 8 µM for the second. The second is the more potent here.

First: CCCOc1cc(C(=O)O)cc(OCCC)c1-c1cn([C@@H](C)c2ccccn2)c2ncc(-c3c(C)noc3C)cc12 [P-0117, (S)-4-(5-(3,5-dimethylisoxazol-4-yl)-1-(1-(pyridin-2-yl)ethyl)-1H-pyrrolo[2,3-b]pyridin-3-yl)-3,5-dipropoxybenzoic acid]
Second: Cc1noc(C)c1-c1cnc2c(c1)c(-c1c(OC(C)C)cc(C(=O)O)cc1OC(C)C)cn2[C@@H](C)c1ccccn1 [P-0118, (S)-4-(5-(3,5-dimethylisoxazol-4-yl)-1-(1-(pyridin-2-yl)ethyl)-1H-pyrrolo[2,3-b]pyridin-3-yl)-3,5-diisopropoxybenzoic acid]
The IC50 of the first is lower: 1 to 8 µM for the first, 8 to 1000 µM for the second.

First: COc1cc(C(=O)O)cc(OC)c1-c1cn(C(C)c2ccccc2)c2cc(-c3c(C)noc3C)cnc12 (stereo not drawn) [P-0119, 4-(6-(3,5-dimethylisoxazol-4-yl)-1-(1-phenylethyl)-1H-pyrrolo[3,2-b]pyridin-3-yl)-3,5-dimethoxybenzoic acid]
Second: COc1c(C(=O)O)cccc1-c1cn(C(C)c2ccccc2)c2cc(-c3c(C)noc3C)cnc12 (stereo not drawn) [P-0136, 3-(6-(3,5-dimethylisoxazol-4-yl)-1-(1-phenylethyl)-1H-pyrrolo[3,2-b]pyridin-3-yl)-2-methoxybenzoic acid]
The IC50 of the first is higher: 1 to 8 µM for the first, 0.0001 to 1 µM for the second.

First: Cc1noc(C)c1-c1cnc2c(-c3ccccc3C(=O)O)cn(C(C)c3ccccc3)c2c1 (stereo not drawn) [P-0120, 2-(6-(3,5-dimethylisoxazol-4-yl)-1-(1-phenylethyl)-1H-pyrrolo[3,2-b]pyridin-3-yl)benzoic acid]
Second: Cc1noc(C)c1-c1cnc2c(c1)c(-c1cccc(C(=O)O)n1)cn2C(C)c1ccccn1 (stereo not drawn) [P-0122, 6-(5-(3,5-dimethylisoxazol-4-yl)-1-(1-(pyridin-2-yl)ethyl)-1H-pyrrolo[2,3-b]pyridin-3-yl)picolinic acid]
The IC50 of the first is lower: 1 to 8 µM for the first, 8 to 1000 µM for the second.

`Cc1noc(C)c1-c1cnc2c(C(=O)C3CCC3)cn(-c3c(Cl)cc(C(=O)O)cc3Cl)c2c1` [P-0121, 3,5-dichloro-4-(3-(cyclobutanecarbonyl)-6-(3,5-dimethylisoxazol-4-yl)-1H-pyrrolo[3,2-b]pyridin-1-yl)benzoic acid] and `Cc1noc(C)c1-c1cnc2c(C(=O)c3cccc(OC(F)F)c3)cn(-c3c(Cl)cc(C(=O)O)cc3Cl)c2c1` [P-0129, 3,5-dichloro-4-(3-(3-(difluoromethoxy)benzoyl)-6-(3,5-dimethylisoxazol-4-yl)-1H-pyrrolo[3,2-b]pyridin-1-yl)benzoic acid] fall in the same range of IC50: 1 to 8 µM for the first, 1 to 8 µM for the second.

`Cc1noc(C)c1-c1cnc2c(c1)c(-c1ccc(C(=O)O)cn1)cn2C(C)c1ccccn1` (stereo not drawn) [P-0123, 6-(5-(3,5-dimethylisoxazol-4-yl)-1-(1-(pyridin-2-yl)ethyl)-1H-pyrrolo[2,3-b]pyridin-3-yl)nicotinic acid] and `Cc1noc(C)c1-c1cnc2c(c1)c(-c1cc(C(=O)O)ccn1)cn2C(C)c1ccccn1` (stereo not drawn) [P-0124, 2-(5-(3,5-dimethylisoxazol-4-yl)-1-(1-(pyridin-2-yl)ethyl)-1H-pyrrolo[2,3-b]pyridin-3-yl)isonicotinic acid] fall in the same range of IC50: 8 to 1000 µM for the first, 8 to 1000 µM for the second.

`Cc1noc(C)c1-c1cnc2c(c1)c(-c1ccc(F)c(C(=O)O)c1F)cn2[C@@H](C)c1ccccn1` [P-0125, (S)-3-(5-(3,5-dimethylisoxazol-4-yl)-1-(1-(pyridin-2-yl)ethyl)-1H-pyrrolo[2,3-b]pyridin-3-yl)-2,6-difluorobenzoic acid] and `Cc1noc(C)c1-c1cnc2c(c1)c(-c1ccnc(C(=O)O)n1)cn2C(C)c1ccccn1` (stereo not drawn) [P-0126, 4-(5-(3,5-dimethylisoxazol-4-yl)-1-(1-(pyridin-2-yl)ethyl)-1H-pyrrolo[2,3-b]pyridin-3-yl)pyrimidine-2-carboxylic acid] fall in the same range of IC50: 8 to 1000 µM for the first, 8 to 1000 µM for the second.

`CCCOc1cc(C(=O)O)cc(OCCC)c1-n1cc(CC2CCC2)c2ncc(-c3c(C)noc3C)cc21` [P-0127, 4-(3-(cyclobutylmethyl)-6-(3,5-dimethylisoxazol-4-yl)-1H-pyrrolo[3,2-b]pyridin-1-yl)-3,5-dipropoxybenzoic acid] and `COc1ccc(-n2cc(CC3CCC3)c3ncc(-c4c(C)noc4C)cc32)cn1` [P-0134, 4-(3-(cyclobutylmethyl)-1-(6-methoxypyridin-3-yl)-1H-pyrrolo[3,2-b]pyridin-6-yl)-3,5-dimethylisoxazole] fall in the same range of IC50: 8 to 1000 µM for the first, 8 to 1000 µM for the second.

`Cc1noc(C)c1-c1cnc2c(Cc3cccc(Cl)c3)cn(-c3c(Cl)cc(C(=O)O)cc3Cl)c2c1` [P-0128, 3,5-dichloro-4-(3-(3-chlorobenzyl)-6-(3,5-dimethylisoxazol-4-yl)-1H-pyrrolo[3,2-b]pyridin-1-yl)benzoic acid] and `Cc1noc(C)c1-c1cnc2c(Cc3ccccc3Cl)cn(-c3c(Cl)cc(C(=O)O)cc3Cl)c2c1` [P-0131, 3,5-dichloro-4-(3-(2-chlorobenzyl)-6-(3,5-dimethylisoxazol-4-yl)-1H-pyrrolo[3,2-b]pyridin-1-yl)benzoic acid] fall in the same range of IC50: 1 to 8 µM for the first, 1 to 8 µM for the second.

`Cc1noc(C)c1-c1cnc2c(CC3CCC3)cn(-c3ccc([N+](=O)[O-])cc3F)c2c1` [P-0130, 4-(3-(cyclobutylmethyl)-1-(2-fluoro-4-nitrophenyl)-1H-pyrrolo[3,2-b]pyridin-6-yl)-3,5-dimethylisoxazole] and `Cc1noc(C)c1-c1cnc2c(c1)c(-c1ccc(C(=O)O)cc1OCC1CC1)cn2[C@@H](C)c1ccccn1` [P-0138, (S)-3-(cyclopropylmethoxy)-4-(5-(3,5-dimethylisoxazol-4-yl)-1-(1-(pyridin-2-yl)ethyl)-1H-pyrrolo[2,3-b]pyridin-3-yl)benzoic acid] fall in the same range of IC50: 8 to 1000 µM for the first, 8 to 1000 µM for the second.

First: Cc1noc(C)c1-c1cnc2c(Cc3cccc(OCc4ccccc4)c3)cn(-c3c(Cl)cc(C(=O)O)cc3Cl)c2c1 [P-0132, 4-(3-(3-(benzyloxy)benzyl)-6-(3,5-dimethylisoxazol-4-yl)-1H-pyrrolo[3,2-b]pyridin-1-yl)-3,5-dichlorobenzoic acid]
Second: Cc1noc(C)c1-c1cnc2c(C(=O)c3cccc(OCc4ccccc4)c3)cn(-c3c(Cl)cc(C(=O)O)cc3Cl)c2c1 [P-0133, 4-(3-(3-(benzyloxy)benzoyl)-6-(3,5-dimethylisoxazol-4-yl)-1H-pyrrolo[3,2-b]pyridin-1-yl)-3,5-dichlorobenzoic acid]
The IC50 of the first is higher: 8 to 1000 µM for the first, 1 to 8 µM for the second.

`COc1cc(C(=O)O)cc(OCc2ccccc2)c1-c1cn([C@@H](C)c2ccccn2)c2ncc(-c3c(C)noc3C)cc12` [P-0135, (S)-3-(benzyloxy)-4-(5-(3,5-dimethylisoxazol-4-yl)-1-(1-(pyridin-2-yl)ethyl)-1H-pyrrolo[2,3-b]pyridin-3-yl)-5-methoxybenzoic acid] and `Cc1noc(C)c1-c1cnc2c(c1)c(-c1ccc(C(=O)O)cc1OC1COC1)cn2[C@@H](C)c1ccccn1` [P-0137, (S)-4-(5-(3,5-dimethylisoxazol-4-yl)-1-(1-(pyridin-2-yl)ethyl)-1H-pyrrolo[2,3-b]pyridin-3-yl)-3-(oxetan-3-yloxy)benzoic acid] fall in the same range of IC50: 8 to 1000 µM for the first, 8 to 1000 µM for the second.
